Test in all cases: relative viability (nuclei count vs DMSO), 5 days (fraction); higher = more cells survive
Compound in the experiment “GSK126 + Olaparib”: CC[C@H](C)N1C=C(C2=C(C=C(C=C21)C3=CN=C(C=C3)N4CCNCC4)C(=O)NCC5=C(C=C(NC5=O)C)C)C [GSK126] + O=C(c1cc(Cc2n[nH]c(=O)c3ccccc23)ccc1F)N1CCN(C(=O)C2CC2)CC1 [Olaparib] (partner 8 µM)
The essentials: (§1)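 The day after seeding in 1536-well plates, lung cancer cell lines were treated by pin tool with a single drug, or with a fixed anchor-drug dose together with five library-drug doses (not always all listed) in √10 steps. After 5 days, a combined fix-and-stain solution (final 0.05% Triton X-100, 1% formaldehyde, 1 ug/ml Hoechst) was added. Nuclei counted on 4× images gave relative viability as treated counts over vehicle counts, reported as the median of duplicate plates.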

Compound in the experiment “GSK126 + Dasatinib”: CC[C@H](C)N1C=C(C2=C(C=C(C=C21)C3=CN=C(C=C3)N4CCNCC4)C(=O)NCC5=C(C=C(NC5=O)C)C)C [GSK126] + Cc1nc(Nc2ncc(C(=O)Nc3c(C)cccc3Cl)s2)cc(N2CCN(CCO)CC2)n1 [Dasatinib] (partner 0.075 µM)
The essentials: as §1

Compound in the experiment “Carboplatin + Decitabine”: C1CC(C1)(C(=O)O)C(=O)O.[NH2-].[NH2-].[Pt+2] [Carboplatin] + Nc1ncn([C@H]2C[C@H](O)[C@@H](CO)O2)c(=O)n1 [Decitabine] (partner 2 µM)
The essentials:
as §1

Compound in the experiment “GSK126 + Bortezomib”: CC[C@H](C)N1C=C(C2=C(C=C(C=C21)C3=CN=C(C=C3)N4CCNCC4)C(=O)NCC5=C(C=C(NC5=O)C)C)C [GSK126] + CC(C)C[C@H](NC(=O)[C@H](Cc1ccccc1)NC(=O)c1cnccn1)B(O)O [Bortezomib] (partner 0.002 µM)
The essentials:
as §1

The results in this text go back to the supplement of paper PMC10307832.

On to UMC-11, for which the relative viability amounted to 0.345 with GSK126 + Olaparib (first compound 0.08 µM); 0.364 in the experiment with GSK126 + Olaparib (first compound 0.253 µM); 0.394 with GSK126 + Olaparib (first compound 0.8 µM); 0.376 with GSK126 + Olaparib (first compound 2.53 µM); 0.361 with GSK126 + Olaparib (first compound 8 µM); 0.512 with GSK126 + Dasatinib (first compound 0.08 µM). Besides, the relative viability came out at 0.475 with GSK126 + Dasatinib (first compound 0.253 µM); 0.443 with GSK126 + Dasatinib (first compound 0.8 µM); 0.417 in the experiment with GSK126 + Dasatinib (first compound 2.53 µM); 0.437 with GSK126 + Dasatinib (first compound 8 µM); 0.596 with Carboplatin + Decitabine (first compound 0.08 µM); 0.626 in the experiment with Carboplatin + Decitabine (first compound 0.253 µM). Moreover, the relative viability is 0.482 in the experiment with Carboplatin + Decitabine (first compound 0.8 µM); 0.576 with Carboplatin + Decitabine (first compound 2.53 µM); 0.418 in the experiment with Carboplatin + Decitabine (first compound 8 µM); 0.842 with GSK126 + Bortezomib (first compound 0.08 µM); 0.628 with GSK126 + Bortezomib (first compound 0.253 µM); 0.747 with GSK126 + Bortezomib (first compound 0.8 µM). Besides, the relative viability in the experiment with GSK126 + Bortezomib (first compound 2.53 µM) worked out at 0.643; with GSK126 + Bortezomib (first compound 8 µM) it was 0.895.
